Experimental data reported in ChEMBL document CHEMBL1201862, “PubChem BioAssay data set” (2004).
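Following 48 hours of exposure in 96-well plates, responses at five concentrations were used to interpolate endpoints linearly. GI50 = concentration required for 50% inhibition of growth.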 Active and inactive are the calls of the source. No stated cut-off is given here; in the data, active = GI50 up to about 1.1 µM and inactive = higher.

Tests used:
Experiment in all cases: growth of human tumour cells (NCI), 48 h
786-0 = test system: 786-0
A498 = test system: A498
A549 = test system: A549
ACHN = test system: ACHN
CAKI-1 = test system: CAKI-1
CCRF-CEM = test system: CCRF-CEM
COLO 205 = test system: COLO 205
DLD-1 = test system: DLD-1
DMS-114 = test system: DMS-114
DMS-273 = test system: DMS-273
EKVX = test system: EKVX
HCC 2998 = test system: HCC 2998
HCT-15 = test system: HCT-15
HL-60 = test system: HL-60
HOP-62 = test system: HOP-62
HOP-92 = test system: HOP-92
HT-29 = test system: HT-29
IGROV-1 = test system: IGROV-1
K562 = test system: K562
KM-20L2 = test system: KM-20L2
KM12 = test system: KM12
LOX IMVI = test system: LOX IMVI
LXFL 529 = test system: LXFL 529
M14 = test system: M14
M19-MEL = test system: M19-MEL
MOLT-4 = test system: MOLT-4
Malme-3M = test system: Malme-3M
NCI-H226 = test system: NCI-H226
NCI-H23 = test system: NCI-H23
NCI-H460 = test system: NCI-H460
NCI-H522 = test system: NCI-H522
OVCAR-3 = test system: OVCAR-3
OVCAR-4 = test system: OVCAR-4
OVCAR-5 = test system: OVCAR-5
OVCAR-8 = test system: OVCAR-8
RPMI-8226 = test system: RPMI-8226
RXF 393 = test system: RXF 393
SF-268 = test system: SF-268
SF-295 = test system: SF-295
SF-539 = test system: SF-539
SK-MEL-28 = test system: SK-MEL-28
SK-MEL-2 = test system: SK-MEL-2
SK-MEL-5 = test system: SK-MEL-5
SK-OV-3 = test system: SK-OV-3
SN12C = test system: SN12C
SNB-19 = test system: SNB-19
SNB-75 = test system: SNB-75
SNB-78 = test system: SNB-78
SW-620 = test system: SW-620
TK-10 = test system: TK-10
UACC-257 = test system: UACC-257
UACC-62 = test system: UACC-62
UO-31 = test system: UO-31
XF498 = test system: XF498
HCT-116 = test system: HCT-116
HOP-18 = test system: HOP-18
SR = test system: SR
U-251 = test system: U-251

`COC(=O)C(Cl)=C1CC1` was tested, and the GI50 (786-0) was 26.1 µM (inactive), the GI50 (A498) was > 100 µM (inactive) and the GI50 (A549) was > 100 µM (inactive). The GI50 (ACHN) was 21.5 µM (inactive), the GI50 (CAKI-1) was 17.9 µM (inactive) and the GI50 (CCRF-CEM) was 14.3 µM (inactive). For the same molecule, the GI50 (COLO 205) was 19.9 µM (inactive), the GI50 (DLD-1) was 23.6 µM (inactive) and the GI50 (DMS-114) was 31 µM (inactive). For the same molecule, the GI50 (DMS-273) was 31.6 µM (inactive), the GI50 (EKVX) was > 10 µM (inactive) and the GI50 (HCC 2998) was 31.7 µM (inactive). For the same molecule, the GI50 (HCT-15) was 20.4 µM, the GI50 (HL-60) was 19.7 µM (inactive) and the GI50 (HOP-62) was > 100 µM (inactive). For the same molecule, the GI50 (HOP-92) was 13.3 µM (inactive), the GI50 (HT-29) was 34.2 µM (inactive) and the GI50 (IGROV-1) was > 100 µM (inactive). The GI50 (K562) was 22.3 µM (inactive), the GI50 (KM-20L2) was > 100 µM (inactive) and the GI50 (KM12) was 37 µM (inactive). The GI50 (LOX IMVI) was 16.7 µM (inactive), the GI50 (LXFL 529) was 16 µM (inactive) and the GI50 (M14) was 16.2 µM (inactive). The GI50 (M19-MEL) was 39.7 µM (inactive), the GI50 (MOLT-4) was 17.7 µM (inactive) and the GI50 (Malme-3M) was 21.1 µM (inactive). For the same molecule, the GI50 (NCI-H226) was > 100 µM (inactive), the GI50 (NCI-H23) was 45.2 µM (inactive) and the GI50 (NCI-H460) was > 100 µM (inactive). The GI50 (NCI-H522) was 17.6 µM (inactive), the GI50 (OVCAR-3) was 26.7 µM (inactive) and the GI50 (OVCAR-4) was 34.8 µM (inactive). The GI50 (OVCAR-5) was > 100 µM (inactive), the GI50 (OVCAR-8) was 30.3 µM (inactive) and the GI50 (RPMI-8226) was 21.8 µM (inactive). The GI50 (RXF 393) was 19.1 µM (inactive), the GI50 (SF-268) was 92.5 µM (inactive) and the GI50 (SF-295) was > 100 µM (inactive). For the same molecule, the GI50 (SF-539) was 27.2 µM (inactive), the GI50 (SK-MEL-28) was 22.9 µM (inactive) and the GI50 (SK-MEL-2) was 32.1 µM (inactive). The GI50 (SK-MEL-5) was 28.5 µM (inactive), the GI50 (SK-OV-3) was > 100 µM (inactive) and the GI50 (SN12C) was 41.8 µM (inactive). For the same molecule, the GI50 (SNB-19) was > 100 µM (inactive), the GI50 (SNB-75) was 38.4 µM (inactive) and the GI50 (SNB-78) was 49.1 µM (inactive). For the same molecule, the GI50 (SW-620) was 18.3 µM (inactive), the GI50 (TK-10) was 36.7 µM (inactive) and the GI50 (UACC-257) was 31.6 µM (inactive). For the same molecule, the GI50 (UACC-62) was 59 µM (inactive), the GI50 (UO-31) was 31.4 µM (inactive) and the GI50 (XF498) was 29.4 µM (inactive).

In the case of `CCC(=O)CC(=O)CCC(=O)Nc1cc(C)ccc1C`, the GI50 (786-0) is reported as > 100 µM (inactive), the GI50 (A498) is reported as > 100 µM (inactive) and the GI50 (A549) is reported as > 100 µM (inactive). The GI50 (ACHN) was > 100 µM (inactive), the GI50 (CCRF-CEM) was > 100 µM (inactive) and the GI50 (DLD-1) was > 100 µM (inactive). For the same molecule, the GI50 (EKVX) was > 100 µM (inactive), the GI50 (HCT-116) was > 100 µM (inactive) and the GI50 (HCT-15) was over 100 µM. For the same molecule, the GI50 (HL-60) was > 100 µM (inactive), the GI50 (HOP-18) was > 100 µM (inactive) and the GI50 (HOP-92) was > 100 µM (inactive). The GI50 (HT-29) was > 100 µM (inactive), the GI50 (IGROV-1) was > 100 µM (inactive) and the GI50 (K562) was > 100 µM (inactive). For the same molecule, the GI50 (KM-20L2) was > 100 µM (inactive), the GI50 (KM12) was > 100 µM (inactive) and the GI50 (LOX IMVI) was > 100 µM (inactive). For the same molecule, the GI50 (LXFL 529) was > 100 µM (inactive), the GI50 (M14) was > 100 µM (inactive) and the GI50 (MOLT-4) was > 100 µM (inactive). The GI50 (Malme-3M) was > 100 µM (inactive), the GI50 (NCI-H23) was > 100 µM (inactive) and the GI50 (NCI-H460) was > 100 µM (inactive). The GI50 (NCI-H522) was > 100 µM (inactive), the GI50 (OVCAR-3) was > 100 µM (inactive) and the GI50 (OVCAR-8) was > 100 µM (inactive). The GI50 (RPMI-8226) was > 100 µM (inactive), the GI50 (RXF 393) was > 100 µM (inactive) and the GI50 (SF-268) was > 100 µM (inactive). For the same molecule, the GI50 (SF-295) was > 100 µM (inactive), the GI50 (SF-539) was > 100 µM (inactive) and the GI50 (SK-MEL-28) was > 100 µM (inactive). The GI50 (SK-MEL-2) was > 100 µM (inactive), the GI50 (SK-MEL-5) was > 100 µM (inactive) and the GI50 (SK-OV-3) was > 100 µM (inactive). The GI50 (SN12C) was > 100 µM (inactive), the GI50 (SNB-19) was > 100 µM (inactive) and the GI50 (SNB-75) was > 100 µM (inactive). The GI50 (SNB-78) was > 100 µM (inactive), the GI50 (SR) was > 100 µM (inactive) and the GI50 (SW-620) was > 100 µM (inactive). The GI50 (TK-10) was > 100 µM (inactive), the GI50 (U-251) was > 100 µM (inactive) and the GI50 (UACC-62) was > 100 µM (inactive). The GI50 (UO-31) was > 100 µM (inactive) and the GI50 (XF498) was > 100 µM (inactive).

With `c1ccc(CN2CCCCC(Sc3ccccc3)CC2)cc1` (stereo unspecified) the GI50 (786-0) was 16.8 µM (inactive), the GI50 (A498) was > 100 µM (inactive) and the GI50 (A549) was 87.3 µM (inactive). For the same molecule, the GI50 (ACHN) was 47.3 µM (inactive), the GI50 (CAKI-1) was 26.9 µM (inactive) and the GI50 (CCRF-CEM) was 19.2 µM (inactive). For the same molecule, the GI50 (COLO 205) was 13.4 µM (inactive), the GI50 (DLD-1) was 20.8 µM (inactive) and the GI50 (DMS-114) was 22.4 µM (inactive). For the same molecule, the GI50 (DMS-273) was 12.6 µM (inactive), the GI50 (EKVX) was 35.2 µM (inactive) and the GI50 (HCC 2998) was 16 µM (inactive). The GI50 (HCT-116) was 27.2 µM (inactive), the GI50 (HCT-15) was 17.6 µM and the GI50 (HL-60) was 23.3 µM (inactive). The GI50 (HOP-18) was 42.7 µM (inactive), the GI50 (HOP-62) was 64.4 µM (inactive) and the GI50 (HOP-92) was 28.5 µM (inactive). The GI50 (HT-29) was 17.7 µM (inactive), the GI50 (IGROV-1) was 91.6 µM (inactive) and the GI50 (K562) was 15.5 µM (inactive). For the same molecule, the GI50 (KM-20L2) was 26.4 µM (inactive), the GI50 (KM12) was > 100 µM (inactive) and the GI50 (LOX IMVI) was 16.5 µM (inactive). The GI50 (LXFL 529) was 17.7 µM (inactive), the GI50 (M14) was 16.1 µM (inactive) and the GI50 (M19-MEL) was 3.1 µM (inactive). For the same molecule, the GI50 (MOLT-4) was 20.8 µM (inactive), the GI50 (Malme-3M) was 19.1 µM (inactive) and the GI50 (NCI-H226) was 32.1 µM (inactive). The GI50 (NCI-H23) was 30.1 µM (inactive), the GI50 (NCI-H460) was 20.2 µM (inactive) and the GI50 (OVCAR-3) was 33.9 µM (inactive). The GI50 (OVCAR-4) was 46.7 µM (inactive), the GI50 (OVCAR-5) was 18.3 µM (inactive) and the GI50 (OVCAR-8) was 27.8 µM (inactive). The GI50 (RPMI-8226) was 17.8 µM (inactive), the GI50 (SF-268) was > 100 µM (inactive) and the GI50 (SF-295) was 40.5 µM (inactive). The GI50 (SF-539) was 29.8 µM (inactive), the GI50 (SK-MEL-28) was 45.3 µM (inactive) and the GI50 (SK-MEL-2) was 32.9 µM (inactive). For the same molecule, the GI50 (SK-MEL-5) was 18.7 µM (inactive), the GI50 (SK-OV-3) was 58.2 µM (inactive) and the GI50 (SN12C) was 24.7 µM (inactive). For the same molecule, the GI50 (SNB-19) was 34 µM (inactive), the GI50 (SNB-75) was 30.5 µM (inactive) and the GI50 (SNB-78) was 27.2 µM (inactive). The GI50 (SR) was 17.8 µM (inactive), the GI50 (SW-620) was 1.53 µM (inactive) and the GI50 (TK-10) was 58.7 µM (inactive). The GI50 (U-251) was 15.9 µM (inactive), the GI50 (UACC-257) was > 100 µM (inactive) and the GI50 (UACC-62) was 36 µM (inactive). The GI50 (UO-31) was 15.3 µM (inactive).
